# Values quoted from earlier work, collected in patent US20250345512A1, “COMBINATION SODIUM-GLUCOSE COTRANSPORTER INHIBITOR (SGLTI) INSULIN THERAPY FOR GLYCEMIC CONTROL IN TYPE 1 DIABETES” (University of Virginia Patent Foundation, priority 2022, published 2025).
# Legend:
# [1] = tested on: T1D; conditions: versus placebo over 18 weeks; cited from earlier work
# [2] = tested on: T1D patients; conditions: 200 mg and 400 mg; adults with T1D; cited from earlier work
# [3] = tested on: T1D adults; conditions: pooled analysis of 1575 T1D adults; cited from earlier work
# [4] = tested on: T1D patients; design: adverse effects, including DKA: reference not given here; conditions: cited from earlier work
# [5] = 25 mg/day added to experimental AID; 9-14 h outpatient; cited from earlier work
compound,measurement,setting,value
Cc1ccc([C@@H]2O[C@H](CO)[C@@H](O)[C@H](O)[C@H]2O)cc1Cc1ccc(-c2ccc(F)cc2)s1 [canagliflozin],indices of glycemic variability and treatment satisfaction,[1],improved indices of glycemic variability and improvement in treatment satisfaction
CCOc1ccc(Cc2cc([C@@H]3O[C@H](SC)[C@@H](O)[C@H](O)[C@H]3O)ccc2Cl)cc1 [sotagliflozin],glycemic control and weight,[2],improved glycemic control and weight
same,short- and long-term renal hemodynamic changes,[3],reductions in urine albumin:creatinine
OC[C@H]1O[C@@H](c2ccc(Cl)c(Cc3ccc(O[C@H]4CCOC4)cc3)c2)[C@H](O)[C@@H](O)[C@@H]1O [empagliflozin],adverse effects,[4]; 2.5 mg,indistinguishable from placebo
same,"adverse effects, including DKA",[4]; 10 mg and 25 mg daily dose,two to three fold higher
same,"body weight, systolic blood pressure, and diastolic blood pressure","[4]; 1707 T1D patients, 26 weeks of SGLT2i treatment",significant reductions
same,hemoglobin A1c and hypoglycemia,[4]; EASE trials,improvements in hemoglobin Ale without increase in hypoglycemia
same,need for pre-meal carbohydrate counting,[5],reduce the need for pre-meal carbohydrate counting
